Results on 12 molecules are retold here after patent publication US9340577B2, “HLA binding motifs and peptides and their uses” (priority 1992, dated 2016).

Read-outs that look alike come from different tables or passages of the source. No end group written: not given here. Bounds are passed on as bounds.

What all share (experiment): biochemical
Test [1] deals with DR1 (DRB1*0101) (Homo sapiens, UniProt P01903+P01911, A100R/D57E/F55L/F60I/F76Y/I96L/L162R/M171V/P40L/Q125E/R42F/V115G/Y59C). Format: binding.
Test [2] has as its target DR4w4 (DRB1*0401) (Homo sapiens, UniProt P01903+P01911, A100K/A169T/F76Y/I96L/K127E/L162R/M171V/N62H/P40V/Q125Y/R42H/S133A/S149N/S66Y/V115G/V209L/W38E). Format: binding.
The target in test [3] is DR7 (DRB1*0701) (Homo sapiens, UniProt P01903+P01911, A100R/A102G/A103Q/D57E/D86V/E43K/F76Y/K127E/L162R/M171V/P40G/Q125H/Q99D/R33Q/R42Y/R54Q/S133A/S66F/T210M/V115G/Y107V/Y59L/Y89S). The class given is binding.
Test [4] concerns the target DRB1*0301 (Homo sapiens, UniProt P01903+P01911, A100K/A102G/A103R/A169T/F55Y/I96L/K41T/L162R/M171V/P40S/Q125H/Q178H/Q39Y/R42S/S66N/T106N/T262R/W38E/Y61H). Format: binding.
Test [5] concerns the target DRB1*0405 (Homo sapiens, UniProt P01903+P01911, A100R/A169T/D86S/F76Y/I96L/K127E/L162R/M171V/N62H/P40V/Q125Y/R42H/S133A/S149N/S66Y/V115G/V209L/W38E). The class given is binding.
Test [6] has as its target DRB1*0802 (Homo sapiens, UniProt P01903+P01911, A100R/A103L/A169T/F76Y/H45Y/I96F/K41T/L162R/M171V/P40S/Q125H/Q178H/Q39Y/Q99D/R218S/R42G/S66Y/V115G/W38E). Format: binding.
The target of test [7] is DRB1*0901 (Homo sapiens, UniProt P01903+P01911, A100R/A103E/D57H/D86V/F55Y/F60I/F76Y/I96F/K127E/L162R/M171V/P40D/Q125H/Q99R/R33Q/R42F/S133A/S66N/T210M/V115G/W38K/Y107V/Y59G/Y89S). Format: binding.
For test [8], the target named is DRB1*1302 (Homo sapiens, UniProt P01903+P01911, A100E/A169T/K41T/L162R/M171V/P40S/Q125H/Q178H/Q39Y/Q99D/R42S/S66N/T262R/V115G/W38E/Y61H). The class given is binding.
Chain of DRB1*1302 (P01903 26-254 limits assumed, other chains not shown): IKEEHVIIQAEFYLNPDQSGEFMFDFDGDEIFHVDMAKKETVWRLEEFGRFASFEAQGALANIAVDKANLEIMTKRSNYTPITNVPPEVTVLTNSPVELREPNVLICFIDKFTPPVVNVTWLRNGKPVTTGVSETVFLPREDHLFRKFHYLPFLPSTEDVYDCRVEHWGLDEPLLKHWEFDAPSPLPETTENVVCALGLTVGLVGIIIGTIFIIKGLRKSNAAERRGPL
Test [9] has as its target DRB1*1501 (Homo sapiens, UniProt P01903+P01911). Format: binding.
Test [10] deals with DRB3*0101 (Homo sapiens, UniProt P01903+P79483). The class given is binding.
The target in test [11] is DRB4*0101 (Homo sapiens, UniProt P01903+P13762, G164S). Format: binding.
The target of test [12] is DRB1*1101 (Homo sapiens, UniProt P01903+P01911, A100R/A169T/A87E/I96F/K41T/L162R/M171V/P40S/Q125H/Q178H/Q39Y/Q99D/R42S/S66Y/T262R/V115G/W38E).
Chain of DRB1*1101 (P01903 26-254 limits assumed, other chains not shown): as above
For test [13], the target named is DRB5*0101 (Homo sapiens, UniProt P01903+Q30154).

Chain of DRB1*0301 (P01903 26-254 limits assumed, other chains not shown): as above

In the case of TTPIIHKLGDRNSLK [Peptide 1601.17], the 50% inhibitory concentration (IC50) in test [1] was 0.085 µM; in test [2], 0.392 µM; in test [3], over 20 µM; in [4] it was 0.501 µM; in [5], 19 µM; in test [6], 0.419 µM. The 50% inhibitory concentration (IC50) in test [7] is over 20 µM; in test [8], 1.48 µM; in [9], 0.382 µM; in test [10], 11 µM; in test [11], 0.019 µM; in test [12], 4.8 µM. Also, the IC50 in test [13] worked out at 5.57 µM.

Turning to `CC(C)C[C@H](NC(=O)[C@H](CCC(N)=O)NC(=O)[C@H](CCCCN)NC(=O)[C@@H](NC(=O)[C@H](CC(C)C)NC(=O)[C@H](CCC(N)=O)NC(=O)[C@@H](NC(=O)[C@H](C)NC(=O)[C@H](CO)NC(=O)[C@@H](NC(=O)[C@@H](NC(=O)[C@H](CC(=O)O)NC(=O)[C@H](CC(=O)O)NC(=O)[C@@H](N)CO)[C@@H](C)O)C(C)C)[C@@H](C)O)C(C)C)C(=O)N[C@@H](CCC(N)=O)C(=O)O` [Peptide 1601.13], the IC50 in [1] was found to be 7.24 µM; in test [2] it was 9.55 µM; in test [3], 7.67 µM; in test [4], 10.5 µM; in test [5], 16.3 µM; in test [6] it was 19.3 µM. Further, the IC50 in test [8] was 16.5 µM; in test [9] it was over 20 µM; in [10], over 20 µM; in test [11] it was 0.026 µM; in [12] (Binding affinity DRB1 *1101), 15.6 µM; in [13] (Binding affinity DRB5 *0101), over 20 µM.

Consider LKGDANILKCLRYRL [Peptide 1601.26], for which the half-inhibitory concentration (IC50) in test [1] is 17.2 µM; in test [2] it was 5.59 µM; in test [3], 9.02 µM; in test [4], 0.052 µM; in [5], 3.14 µM; in test [7] it was over 20 µM. Also, the 50% inhibitory concentration (IC50) in test [8] was 6.9 µM; in [9], 0.609 µM; in test [10], 3.19 µM; in test [11], 6.22 µM; in test [12] (Binding affinity DRB1 *1101), 5.53 µM; in test [13] (Binding affinity DRB5 *0101) it was over 20 µM.

Take `CC(C)[C@H](NC(=O)[C@H](CCC(=O)O)NC(=O)[C@H](Cc1c[nH]c2ccccc12)NC(=O)[C@@H](NC(=O)CNC(=O)[C@@H](NC(=O)[C@H](CC(N)=O)NC(=O)CNC(=O)[C@H](Cc1ccc(O)cc1)NC(=O)[C@H](CCCCN)NC(=O)[C@@H](N)CCC(=O)O)[C@@H](C)O)[C@@H](C)O)C(=O)N[C@@H](Cc1c[nH]cn1)C(=O)N[C@@H](Cc1ccccc1)C(=O)NCC(=O)N[C@@H](CC(N)=O)C(=O)O` [Peptide 1601.11]: the 50% inhibitory concentration (IC50) in test [1] is 0.505 µM; in test [3] it was 0.091 µM; in [4], over 20 µM; in test [5] it was 14.7 µM; in [6] it was over 20 µM; in test [7] it was 2.49 µM. Further, the IC50 in test [8], in test [9], in test [10], in test [11], in test [12] (Binding affinity DRB1 *1101) and in test [13] (Binding affinity DRB5 *0101) was over 20 µM throughout.

On to SNEVSSPEIIRQHLA [Peptide 1601.06], for which the concentration for half-maximal inhibition (IC50) in test [1] was over 20 µM; in test [2], over 20 µM; in test [3] it was 8.61 µM; in [4], 4.79 µM; in test [5] it was over 20 µM; in [6], over 20 µM. The concentration for half-maximal inhibition (IC50) in test [9] is 5.36 µM; in test [10], over 20 µM; in test [11] it was 0.013 µM; in test [12] (Binding affinity DRB1 *1101), over 20 µM; in test [13] (Binding affinity DRB5 *0101), over 20 µM.

Consider `CC[C@H](C)[C@H](NC(=O)CNC(=O)[C@@H](NC(=O)[C@H](CCCCN)NC(=O)[C@H](CCC(=O)O)NC(=O)[C@H](CC(N)=O)NC(=O)CNC(=O)[C@H](C)N)[C@@H](C)O)C(=O)N[C@@H](CC(C)C)C(=O)N[C@H](C(=O)N[C@H](C(=O)N[C@H](C(=O)N[C@@H](Cc1ccc(O)cc1)C(=O)N[C@@H](Cc1c[nH]cn1)C(=O)N[C@@H](CO)C(=O)O)[C@@H](C)O)C(C)C)[C@@H](C)O` [Peptide 1601.18], for which the half-maximal inhibitory concentration (IC50) was over 20 µM in test [1]; 3.99 µM in test [2]; over 20 µM in test [4]; 6.75 µM in test [5]; over 20 µM in test [6]; over 20 µM in [7]. In addition, the concentration for half-maximal inhibition (IC50) in test [8] is over 20 µM; in test [9] it was 2.81 µM; in test [10], over 20 µM; in test [11] it was 0.932 µM; in test [12] (Binding affinity DRB1 *1101) it was over 20 µM; in [13] (Binding affinity DRB5 *0101) it was over 20 µM.

With DICNTMHYTNWTHIY [Peptide 1601.04], the 50% inhibitory concentration (IC50) stood at 8.96 µM in [1]; 0.883 µM in test [2]; 0.412 µM in test [3]; 14.8 µM in [4]; 2.82 µM in test [5]; 4.85 µM in test [7]. The 50% inhibitory concentration (IC50) is 1.04 µM in [8]; 7.2 µM in test [10]; 6.05 µM in test [11]; over 20 µM in test [12] (Binding affinity DRB1 *1101); over 20 µM in test [13] (Binding affinity DRB5 *0101).

For the molecule NCNSNTTPIVHLKGD [Peptide 1601.08], the half-inhibitory concentration (IC50) in test [1] is 11.5 µM; in test [2], 3.11 µM; in test [4], over 20 µM; in test [5], over 20 µM; in [6], over 20 µM; in test [7], 3.14 µM. The half-inhibitory concentration (IC50) in test [9] is over 20 µM; in test [10], over 20 µM; in test [11], 2.64 µM; in test [12] (Binding affinity DRB1 *1101), over 20 µM; in [13] (Binding affinity DRB5 *0101), over 20 µM.

For TYISTSQRDDFLNTV [Peptide 1601.27], the half-inhibitory concentration (IC50) in test [1] is over 20 µM; in test [2] it was 16.3 µM; in test [4], 0.152 µM; in test [5] it was 5.2 µM; in test [6], over 20 µM; in test [7] it was 13 µM. In addition, the concentration for half-maximal inhibition (IC50) is over 20 µM in test [9]; 6.62 µM in [10]; 0.48 µM in [11]; over 20 µM in test [12] (Binding affinity DRB1 *1101); over 20 µM in test [13] (Binding affinity DRB5 *0101).

PTGCLKKHGYTVEVQ [Peptide 1601.23]: the half-inhibitory concentration (IC50) in test [1] is 17.9 µM; in [2], 19.8 µM; in test [3], 2.27 µM; in test [4], over 20 µM; in test [5], over 20 µM; in [6], over 20 µM. In addition, the IC50 is 1.74 µM in test [7]; 0.082 µM in [8]; over 20 µM in test [10]; 7.47 µM in [11]; over 20 µM in test [12] (Binding affinity DRB1 *1101); over 20 µM in test [13] (Binding affinity DRB5 *0101).

Take FLDVVTIPNSVQISV [Peptide 1601.40]: the IC50 in test [1] stood at 0.551 µM; in test [2], 0.017 µM; in [3], 0.492 µM; in test [4], 8.36 µM; in test [5] it was 1.78 µM; in test [6], 14.7 µM. Besides, the IC50 in [7] was 9.35 µM; in test [8] it was 0.053 µM; in test [10] it was 17.6 µM; in test [11], 2.21 µM; in test [12] (Binding affinity DRB1 *1101) it was 2.2 µM; in [13] (Binding affinity DRB5 *0101) it was over 20 µM.

With QMMLETLNNTEYKNE [Peptide 1601.22], the concentration for half-maximal inhibition (IC50) is over 20 µM in test [1]; over 20 µM in test [3]; 9.64 µM in test [4]; 0.063 µM in test [5]; over 20 µM in [6]; over 20 µM in test [7]. Besides, the IC50 in [8] is 14.7 µM; in [9], over 20 µM; in test [10], over 20 µM; in test [11], 0.555 µM; in test [12] (Binding affinity DRB1 *1101), over 20 µM; in test [13] (Binding affinity DRB5 *0101), over 20 µM.

Broadly, the IC50 is the point on the concentration scale where inhibition reaches its midpoint. Low readings indicate greater potency in that assay, high ones weaker potency in that assay.
